Assay results reported in US20070099983A1, “Aminocyclohexyl ether compounds and uses thereof” (Cardiome Pharma Corp., priority 2003, published 2007).

What was measured:
[1] = test system: sustained AF maintained during continuous vagal nerve stimulation; assay: Canine vagal-AF model: termination of sustained AF; type: in vivo, dog; details: IV, anesthetized dogs
Description: St.-Georges et al., 1997). Dogs are ventilated mechanically with room air supplemented with oxygen via an endotracheal tube at 20 to 25 breaths/minute with a tidal volume obtained from a monogram. […] Catheters are inserted into the femoral artery for blood pressure recording and blood gas measurement, and into both femoral veins for drug administration and venous sampling. […] Body temperature is maintained at 37-40° C. with a heating blanket. The heart is exposed via a medial thoracotomy and a pericardial cradle is created. […] Drug effects to terminate sustained AF maintained during continuous vagal nerve stimulation are assessed. […] The vagal stimulation voltage is adjusted under control conditions, and then readjusted after each treatment to maintain the same bradycardic effect. […] Diastolic threshold and ERP are determined in duplicate and averaged to give a single value. […] The interval between the stimulus artefact and the peak of the local electrogram is measured as an index of conduction velocity. […] The stimulus voltage-heart rate relationship for vagal nerve stimulation is determined under control conditions in most experiments. […] After the termination of AF, the diastolic threshold and ERP of the atrium and ventricle are determined. […] Group data are expressed as the mean±SEM. […]

conscious rats = assay: Determination of CNS toxicity: convulsions in conscious rats on increasing i.v. infusion; type: in vivo
[2] = minimum i.v. infusion rate at which partial or complete convulsions are observed, conscious rats, maximum rate 64
[3] = total amount of drug infused when partial or complete convulsions are first observed, conscious rats

SMILES: O=C(NCC1CCCCN1)c1cc(OCC(F)(F)F)ccc1OCC(F)(F)F (centres unmarked) [Flecainide]
- Median dose required for termination of AF [1]: 2.5 µmol/kg
- Mean dose required for termination of AF ([1]; mean±EM): 4 ± 2 µmol/kg

SMILES: COc1ccc(CCO[C@H]2CCCCC2N2CCC3(C2)OCCO3)cc1OC.Cl (stereo partly drawn) [Compound 9, 7-{(1R,2R)/(1S,2S)-2-[2-(3,4-dimethoxyphenyl)-ethoxy]cyclohexyl}-1,4-dioxa-7-azaspiro[4.4]nonane hydrochloride]
- convulsion dose (conscious rats; [2]): 16 µmol/kg/min
- cum conv dose (conscious rats; [3]): 91.33 µmol/kg

SMILES: Cl.FC(F)(F)c1ccccc1CCO[C@H]1CCCC[C@H]1N1CCOCC1 (racemic) [Compound 42, (1R,2S)/(1S,2R)-2-(4-morpholinyl)-1-[(2-trifluoromethyl)-phenethoxy]-cyclohexane monohydrochloride]
- cum conv dose (conscious rats; rat, in vivo): 102 µmol/kg
- convulsion dose (conscious rats; rat, in vivo, iv): 16 µmol/kg/min

SMILES: COc1ccc(CCO[C@H]2CCCCC2N2CC[C@@H](OCc3ccccc3)C2)cc1OC.Cl (stereo partly drawn) [Compound 12, (3R)-3-benzyloxy-1-{(1R,2R)/(1S,2S)-2-[2-(3,4-dimethoxyphenyl)-ethoxy]cyclohexyl}-pyrrolidine hydrochloride]
- cum conv dose (conscious rats; rat, in vivo): 51.1 µmol/kg
- convulsion dose (conscious rats; rat, in vivo, iv): 8 µmol/kg/min

SMILES: Cl.Clc1cccc(Cl)c1CCOC1CCCC[C@H]1N1CCSC1 (stereo partly drawn) [Compound 48, (1R,2R)/(1S,2S)-2-(3-thiazolidinyl)-1-(2,6-dichlorophenethoxy) cyclohexane monohydrochloride]
- cum conv dose (conscious rats; rat, in vivo): 331 µmol/kg
- convulsion dose (conscious rats; rat, in vivo, iv): 43 µmol/kg/min

SMILES: COc1ccc(CCO[C@H]2CCCC[C@@H]2N2CC[C@H](O)C2)cc1OC.Cl [Compound 7, (1S,2S)-2-[(3S)-Hydroxypyrrolidinyl]-1-(3,4-dimethoxyphenethoxy)cyclohexane monohydrochloride]
- cum conv dose (conscious rats; rat, in vivo): 451.67 µmol/kg
- convulsion dose (conscious rats; rat, in vivo, iv): 64 µmol/kg/min

SMILES: COc1ccc(CCO[C@H]2CCCCC2N2CCC[C@@H]2CO)cc1OC.Cl (stereo partly drawn) [Compound 15, {(2R)-1-{(1R,2R)/(1S,2S)-2-[2-(3,4-dimethoxyphenyl)-ethoxy]cyclohexyl}-pyrrolidin-2-yl}methanol hydrochloride]
- cum conv dose (conscious rats; rat, in vivo): 142.33 µmol/kg
- convulsion dose (conscious rats; rat, in vivo, iv): 16 µmol/kg/min

SMILES: c1ccc2c(CCO[C@H]3CCCCC3N3CCOCC3)csc2c1 (some centres unmarked) [Compound 36]
- cum conv dose (conscious rats; rat, in vivo): 65 µmol/kg
- convulsion dose (conscious rats; rat, in vivo, iv): 8 µmol/kg/min

SMILES: COc1ccc(CCO[C@H]2CCCCC2N2CC[C@H](OCc3ccccc3)C2)cc1OC.Cl (stereo partly drawn) [Compound 11, (3S)-3-benzyloxy-1-{(1R,2R)/(1S,2S)-2-[2-(3,4-dimethoxyphenyl)-ethoxy]cyclohexyl}-pyrrolidine hydrochloride]
- cum conv dose (conscious rats; rat, in vivo): 38.13 µmol/kg
- convulsion dose (conscious rats; rat, in vivo, iv): 8 µmol/kg/min

SMILES: Cl.OC1CCN(C2CCCC[C@@H]2OCCc2c(Cl)cccc2Cl)C1 (stereo partly drawn) [Compound 46, (1R,2R)/(1S,2S)-2-(3-hydroxypyrrolidinyl)-1-(2,6-dichlorophenethoxy) cyclohexane monohydrochloride]
- cum conv dose (conscious rats; rat, in vivo): 65 µmol/kg

SMILES: COc1ccc(CCO[C@H]2CCCC[C@@H]2N2CC[C@@H](O)C2)cc1OC.Cl [Compound 2, (1S,2S)-2-[(3R)-Hydroxypyrrolidinyl]-1-(3,4-dimethoxyphenethoxy)cyclohexane monohydrochloride]
- cum conv dose (conscious rats; rat, in vivo): 500.67 µmol/kg
- convulsion dose (conscious rats; rat, in vivo, iv): 64 µmol/kg/min

SMILES: COc1ccc(CCO[C@H]2CCCCC2N2CC[C@H](OC(C)=O)C2)cc1OC.Cl (stereo partly drawn) [Compound 13, (3S)-1-{(1R,2R)/(1S,2S)-2-[2-(3,4-dimethoxyphenyl)-ethoxy]cyclohexyl}-pyrrolidin-3-yl acetate hydrochloride]
- cum conv dose (conscious rats; rat, in vivo): 51.9 µmol/kg
- convulsion dose (conscious rats; rat, in vivo, iv): 8 µmol/kg/min

SMILES: COc1ccc(CCOC2CCCC[C@H]2N2CCN(C(=O)Cc3ccc(OC)c(OC)c3)CC2)cc1OC.Cl (stereo partly drawn) [Compound 22, 1-[(3,4-dimethoxyphenyl)acetyl]-4-{(1R,2R)/(1S,2S)-2-[2-(3,4-dimethoxyphenyl)-ethoxy]cyclohexyl}-piperazine hydrochloride]
- convulsion dose (conscious rats; [2]): 21.33 µmol/kg/min
- cum conv dose (conscious rats; [3]): 133 µmol/kg

SMILES: COc1ccc(CCO[C@H]2CCCCC2N2CCOCC2)cc1OC (stereo partly drawn) [Compound 35, (1R,2R)/(1S,2S)-[2-(4-morpholinyl)-1-(3,4-dimethoxy-phenethoxy)]-cyclohexane]
- cum conv dose (conscious rats; rat, in vivo): 113 µmol/kg
- convulsion dose (conscious rats; rat, in vivo, iv): 16 µmol/kg/min

SMILES: c1cc(CCO[C@H]2CCCCC2N2CCOCC2)c2ccsc2c1 (some centres unmarked) [Compound 37]
- cum conv dose (conscious rats; rat, in vivo): 54 µmol/kg
- convulsion dose (conscious rats; rat, in vivo, iv): 8 µmol/kg/min

SMILES: Clc1ccc(CCO[C@H]2CCCCC2N2CCOCC2)cc1Cl (stereo partly drawn) [Compound 40, (1R,2R)/(1S,2S)-2-(4-morpholinyl)-1-(3,4-dichlorophenethoxy) cyclohexane]
- cum conv dose (conscious rats; rat, in vivo): 118 µmol/kg
- convulsion dose (conscious rats; rat, in vivo, iv): 16 µmol/kg/min

SMILES: Cl.OC1CCN(C2CCCC[C@@H]2OCCc2ccccc2Br)C1 (stereo partly drawn) [Compound 24, (3R)/(3S)-1-{(1R,2R)/(1S,2S)-2-[2-(2-bromophenyl)-ethoxy]cyclohexyl}-pyrrolidin-3-ol hydrochloride]
- cum conv dose (conscious rats; rat, in vivo): 67 µmol/kg
- convulsion dose (conscious rats; rat, in vivo, iv): 13 µmol/kg/min

SMILES: c1ccc2cc(CCO[C@H]3CCCCC3N3CCOCC3)ccc2c1 (stereo partly drawn) [Compound 30, (1R,2R)/(1S,2S)-[2-(4-morpholinyl)-1-(2-naphthenethoxy)]-cyclohexane]
- cum conv dose (conscious rats; rat, in vivo): 85 µmol/kg
- convulsion dose (conscious rats; rat, in vivo, iv): 13.3 µmol/kg/min

SMILES: COc1ccc(CCO[C@H]2CCCCC2N2CC[C@H](O)C2)cc1OC.Cl (stereo partly drawn) [Compound 5, (1R,2R)/(1S,2S)-2-[(3S)-Hydroxypyrrolidinyl]-1-(3,4-dimethoxyphenethoxy)-cyclohexane monohydrochloride]
- cum conv dose (conscious rats; rat, in vivo): 438 µmol/kg
- convulsion dose (conscious rats; rat, in vivo, iv): 64 µmol/kg/min

SMILES: COc1ccc(CCO[C@@H]2CCCC[C@H]2N2CC[C@@H](OC(C)=O)C2)cc1OC.Cl [Compound 17, (3R)-1-{(1R,2R)-2-[2-(3,4-dimethoxyphenyl)-ethoxy]cyclohexyl}-pyrrolidin-3-yl acetate hydrochloride]
- cum conv dose (conscious rats; rat, in vivo): 74.3 µmol/kg
- convulsion dose (conscious rats; rat, in vivo, iv): 13.33 µmol/kg/min

SMILES: Cl.O=C1CCN(C2CCCC[C@@H]2OCCc2c(Cl)cccc2Cl)C1 (stereo partly drawn) [Compound 41, (1R,2R)/(1S,2S)-2-(3-ketopyrrolidinyl)-1-(2,6-dichlorophenethoxy) cyclohexane monohydrochloride]
- cum conv dose (conscious rats; rat, in vivo): 190 µmol/kg
- convulsion dose (conscious rats; rat, in vivo, iv): 32 µmol/kg/min

SMILES: Cl.OC1CCN(C2CCCC[C@@H]2OCCn2ccc3ccccc32)C1 (stereo partly drawn) [Compound 28, (3R)/(3S)-1-{(1R,2R)/(1S,2S)-2-[2-(1H-indol-1-yl)ethoxy]cyclohexyl}pyrrolidin-3-ol hydrochloride]
- cum conv dose (conscious rats; rat, in vivo): 113 µmol/kg
- convulsion dose (conscious rats; rat, in vivo, iv): 16 µmol/kg/min

SMILES: Brc1ccc(OCCO[C@H]2CCCCC2N2CCOCC2)cc1 (stereo partly drawn) [Compound 34, (1R,2R)/(1S,2S)-[2-(4-morpholinyl)-1-[2-(4-bromophenoxy)-ethoxy]]cyclohexane]
- cum conv dose (conscious rats; rat, in vivo): 83 µmol/kg
- convulsion dose (conscious rats; rat, in vivo, iv): 10.7 µmol/kg/min

SMILES: COc1ccc(CCO[C@@H]2CCCC[C@H]2N2CC[C@H](O)C2)cc1OC.Cl [Compound 6, (1R,2R)-2-[(3S)-Hydroxypyrrolidinyl]-1-(3,4-dimethoxyphenethoxy) cyclohexane monohydrochloride]
- cum conv dose (conscious rats; rat, in vivo): 472.24 µmol/kg
- convulsion dose (conscious rats; rat, in vivo, iv): 64 µmol/kg/min
